Patent publication US20070281992A1, “COMBINATION OF GYRASE B INHIBITORS AND PROTEIN SYNTHESIS INHIBITORS AND USES THEREOF” (priority 2006, published 2007)
Like-named read-outs stand apart in the source and are kept apart here.

Key:
[1] = test system: Vancomycin-intermediate Staphylococcus aureus Isolates; experiment: MIC assay (NCCLS broth dilution), VISA isolates; type: cell-based; settings: for MIC Range / MIC50: 2 VISA isolates, combinations at 2.5:1, given as NB/partner; for MIC / MIC50: Staphylococcus aureus; for MIC: read-out: Minimal Inhibitory Concentration
Description: (§1) Antibiotics: novobiocin, tetracycline, minocycline, oxacillin, and vancomycin were all purchased from Sigma-Aldrich. Linezolid was obtained from Pfizer, Inc. Novobiocin/tetracycline and novobiocin/minocycline were tested in a 2.5:1 ratio to mimic the serum levels. (Vavra, J. J., 1967, Development of resistance to novobiocin, tetracycline, and novobiocin-tetracycline combinations in Staphylococcus aureus populations, J. Bacteriol 93(3):801). Compounds were tested across a concentration range consisting of 11 two-fold serial dilutions of test agent.
(§2) Stock solutions were prepared in sterile deionized water; novobiocin stock concentration was 1600 μg/mL and all other drugs stock solutions were prepared at 640 μg/mL. The stock solutions were allowed to sit at room temperature for one hour to auto-sterilize prior to use in the test. All compounds were in solution in water. The control agent was vancomycin hydrochloride, Sigma Chemical Lot # 015K0825.
(§3) The test organisms for the assay were 52 MSSA, 52 MRSA, 8 VISA, 7 VISE, and 3 LRSA isolates. Quality control strains included Staphylococcus aureus 0100 (ATCC 29213) and Enterococcus faecalis (ATCC 29212).
(§4) The MIC assay was performed according to published NCCLS guidelines. (National Committee for Clinical Laboratory Standards, Methods for Dilution Antimicrobial Susceptibility Tests for Bacteria that Grow Aerobically; Approved Standard-Sixth Edition, NCCLS Document M7-A6 [ISBN 1-56238-486-4], NCCLS, 940 West Valley Road, Suite 1400, Wayne, Pa. 19087-1898 USA, 2003). The test medium was Mueller Hinton II Broth for all organisms.

[2] = test system: Unconfirmed Vancomycin-intermediate Staphylococcus aureus Isolates; experiment: MIC assay (NCCLS broth dilution), unconfirmed VISA isolates; type: cell-based; settings: for MIC Range / MIC50: 6 unconfirmed VISA isolates (vancomycin MIC 4 ug/ml), combinations at 2.5:1; for MIC / MIC50: Staphylococcus aureus; for MIC: read-out: Minimal Inhibitory Concentration
Description: as §1, §2, §3, §4

[3] = test system: Staphylococcus aureus 0100 (ATCC 29213); experiment: MIC assay, quality control strain S. aureus ATCC 29213; type: cell-based
Description: as §1, §2, §3, §4

[4] = test system: Enterococcus faecalis (ATCC 29212); experiment: MIC assay, quality control strain E. faecalis ATCC 29212; type: cell-based
Description: as §1, §2, §3, §4

[5] = test system: Staphylococcus aureus 0100 (ATCC 29213); settings: S. aureus ATCC 29213; accepted quality control range; cited from earlier work
[6] = test system: Enterococcus faecalis (ATCC 29212); settings: E. faecalis ATCC 29212; accepted quality control range; cited from earlier work
[7] = Unconfirmed VISA isolate 2013, 03MAR06
[8] = Unconfirmed VISA isolate 2014, 03MAR06
[9] = Unconfirmed VISA isolate 2015, 03MAR06
[10] = Unconfirmed VISA isolate 2016, 03MAR06
[11] = Unconfirmed VISA isolate 2017, 03MAR06
[12] = Unconfirmed VISA isolate 2019, 03MAR06
[13] = ATCC29213, S. aureus ATCC 29213, repeat runs 22FEB06-09MAR06, combinations at 2.5:1, read-out: Minimal Inhibitory Concentration, quality control
[14] = ATCC29212, E. faecalis ATCC 29212, repeat runs 22FEB06-09MAR06, combinations at 2.5:1, read-out: Minimal Inhibitory Concentration, quality control

Row | Structure (SMILES) | MIC Range [1] | MIC ([1]; VISA isolate 2012, 03MAR06) | MIC ([1]; VISA isolate 2018, 03MAR06) | MIC50 [1] | MIC Range [2] | MIC [2, 7] | MIC [2, 8] | MIC [2, 9] | MIC [2, 10] | MIC [2, 11] | MIC [2, 12] | MIC50 [2] | MIC [3, 13] | MIC [4, 14] | CLSI QC Range (MIC) [5] | CLSI QC Range (MIC) [6] | other results
1 | CC(=O)NC[C@H]1CN(c2ccc(N3CCOCC3)c(F)c2)C(=O)O1 [LZD, linezolid] | 1 to 2 µg/mL | 1 µg/mL | 2 µg/mL | 1 µg/mL | 1 to 4 µg/mL | 2 µg/mL | 2 µg/mL | 1 µg/mL | 4 µg/mL | 2 µg/mL | 1 µg/mL | 2 µg/mL | 4 µg/mL | 2 µg/mL | 1 to 4 µg/mL | 1 to 4 µg/mL | 
2 | CN(C)c1ccc(O)c2c1C[C@H]1C[C@H]3[C@H](N(C)C)C(O)=C(C(N)=O)C(=O)[C@@]3(O)C(O)=C1C2=O [MI, minocycline] | .06 to 25 µg/mL | 0.25 µg/mL | 0.06 µg/mL | 0.06 µg/mL | ≦.015-2 μg/ml | 0.12 µg/mL | 2 µg/mL | < 0.015 µg/mL | 0.06 µg/mL | 0.03 µg/mL | 2 µg/mL | 0.06 µg/mL | 0.12 µg/mL | 2 µg/mL |  |  | 
3 | CO[C@@H]1[C@@H](OC(N)=O)[C@@H](O)[C@H](Oc2ccc3c(O)c(NC(=O)c4ccc(O)c(CC=C(C)C)c4)c(=O)oc3c2C)OC1(C)C [NB, novobiocin] | ≦.04-.08 μg/ml | 0.08 µg/mL | ≤ 0.04 µg/mL | ≤ 0.04 µg/mL | ≦.04-.15 μg/ml | 0.08 µg/mL | 0.15 µg/mL | ≤ 0.04 µg/mL | ≤ 0.04 µg/mL | 0.15 µg/mL | ≤ 0.04 µg/mL | ≤ 0.04 µg/mL |  | 5 µg/mL |  |  | 
4 | Cc1onc(-c2ccccc2)c1C(=O)N[C@@H]1C(=O)N2[C@@H]1SC(C)(C)[C@@H]2C(=O)O [OX, oxacillin] | >32 µg/mL | > 32 µg/mL | > 32 µg/mL | > 32 µg/mL |  | 4 µg/mL | > 32 µg/mL | > 32 µg/mL | 4 µg/mL | 0.25 µg/mL | > 32 µg/mL | 4 µg/mL |  | 8 µg/mL | 0.12 to 0.5 µg/mL | 8 to 32 µg/mL | 
5 | CN(C)[C@@H]1C(O)=C(C(N)=O)C(=O)[C@@]2(O)C(O)=C3C(=O)c4c(O)cccc4[C@@](C)(O)[C@H]3C[C@@H]12 [TE, tetracycline] | .25 to 2 µg/mL | 2 µg/mL | 0.25 µg/mL | 0.25 µg/mL |  | 0.5 µg/mL | > 16 µg/mL | 0.06 µg/mL | 0.5 µg/mL | 0.25 µg/mL | > 16 µg/mL | 0.5 µg/mL | 0.5 µg/mL | 16 µg/mL |  |  | 
6 | CN[C@H](CC(C)C)C(=O)N[C@H]1C(=O)N[C@@H](CC(N)=O)C(=O)N[C@H]2C(=O)N[C@H]3C(=O)N[C@H](C(=O)N[C@H](C(=O)O)c4cc(O)cc(O)c4-c4cc3ccc4O)[C@H](O)c3ccc(c(Cl)c3)Oc3cc2cc(c3O[C@@H]2O[C@H](CO)[C@@H](O)[C@H](O)[C@H]2O[C@H]2C[C@](C)(N)[C@H](O)[C@H](C)O2)Oc2ccc(cc2Cl)[C@H]1O [VA, vancomycin] | 8 µg/mL |  |  |  | 4 µg/mL |  |  |  |  |  |  |  |  |  | 0.5 to 2 µg/mL | 1 to 4 µg/mL | MIC [1]: 8 µg/mL; Minimal Inhibitory Concentration ([1]; VISA isolate 2018, 03MAR06): 8 µg/mL; MIC [2]: 4 µg/mL; Minimal Inhibitory Concentration [2, 8]: 4 µg/mL; Minimal Inhibitory Concentration [2, 9]: 4 µg/mL; Minimal Inhibitory Concentration [2, 10]: 4 µg/mL; Minimal Inhibitory Concentration [2, 11]: 4 µg/mL; Minimal Inhibitory Concentration [2, 12]: 4 µg/mL; MIC ([3]; ATCC29213, read-out: Minimal Inhibitory Concentration, quality control, S. aureus ATCC 29213, repeat runs 22FEB06-09MAR06, combinations at 2.5:1): 0.5 µg/mL; MIC ([4]; ATCC29212, read-out: Minimal Inhibitory Concentration, quality control, E. faecalis ATCC 29212, repeat runs 22FEB06-09MAR06, combinations at 2.5:1): 2 µg/mL
